Test [1] deals with T1, RNA 5'-monophosphate methyltransferase (Homo sapiens) (UniProt Q7Z5W3).
T1 sequence (whole entry): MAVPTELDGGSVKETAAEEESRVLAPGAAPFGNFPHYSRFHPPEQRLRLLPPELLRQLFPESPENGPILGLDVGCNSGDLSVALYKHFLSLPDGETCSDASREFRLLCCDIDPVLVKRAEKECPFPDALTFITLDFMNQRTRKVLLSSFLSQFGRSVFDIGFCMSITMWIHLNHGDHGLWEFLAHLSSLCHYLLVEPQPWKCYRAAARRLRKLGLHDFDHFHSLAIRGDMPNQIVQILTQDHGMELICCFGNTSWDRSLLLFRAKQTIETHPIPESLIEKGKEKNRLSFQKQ
Briefly: Selectivity interaction (Methyltransferase screen (radiometric assays, panel of 8 PRMTs, 21 protein lysine methyltransferases, 3 DNA methyltransferases, and one RNA methyltransferase)) EUB0000271b BCDIN3D.

In test [2] the target is Myosin light chain kinase, smooth muscle (Homo sapiens, UniProt Q15746). In words: Selectivity interaction (KinomeScan (DiscoverX)) EUB0000666a MYLK. The conditions noted are these: at 10 µM.
Myosin light chain kinase, smooth muscle, sequence (Q15746 whole entry): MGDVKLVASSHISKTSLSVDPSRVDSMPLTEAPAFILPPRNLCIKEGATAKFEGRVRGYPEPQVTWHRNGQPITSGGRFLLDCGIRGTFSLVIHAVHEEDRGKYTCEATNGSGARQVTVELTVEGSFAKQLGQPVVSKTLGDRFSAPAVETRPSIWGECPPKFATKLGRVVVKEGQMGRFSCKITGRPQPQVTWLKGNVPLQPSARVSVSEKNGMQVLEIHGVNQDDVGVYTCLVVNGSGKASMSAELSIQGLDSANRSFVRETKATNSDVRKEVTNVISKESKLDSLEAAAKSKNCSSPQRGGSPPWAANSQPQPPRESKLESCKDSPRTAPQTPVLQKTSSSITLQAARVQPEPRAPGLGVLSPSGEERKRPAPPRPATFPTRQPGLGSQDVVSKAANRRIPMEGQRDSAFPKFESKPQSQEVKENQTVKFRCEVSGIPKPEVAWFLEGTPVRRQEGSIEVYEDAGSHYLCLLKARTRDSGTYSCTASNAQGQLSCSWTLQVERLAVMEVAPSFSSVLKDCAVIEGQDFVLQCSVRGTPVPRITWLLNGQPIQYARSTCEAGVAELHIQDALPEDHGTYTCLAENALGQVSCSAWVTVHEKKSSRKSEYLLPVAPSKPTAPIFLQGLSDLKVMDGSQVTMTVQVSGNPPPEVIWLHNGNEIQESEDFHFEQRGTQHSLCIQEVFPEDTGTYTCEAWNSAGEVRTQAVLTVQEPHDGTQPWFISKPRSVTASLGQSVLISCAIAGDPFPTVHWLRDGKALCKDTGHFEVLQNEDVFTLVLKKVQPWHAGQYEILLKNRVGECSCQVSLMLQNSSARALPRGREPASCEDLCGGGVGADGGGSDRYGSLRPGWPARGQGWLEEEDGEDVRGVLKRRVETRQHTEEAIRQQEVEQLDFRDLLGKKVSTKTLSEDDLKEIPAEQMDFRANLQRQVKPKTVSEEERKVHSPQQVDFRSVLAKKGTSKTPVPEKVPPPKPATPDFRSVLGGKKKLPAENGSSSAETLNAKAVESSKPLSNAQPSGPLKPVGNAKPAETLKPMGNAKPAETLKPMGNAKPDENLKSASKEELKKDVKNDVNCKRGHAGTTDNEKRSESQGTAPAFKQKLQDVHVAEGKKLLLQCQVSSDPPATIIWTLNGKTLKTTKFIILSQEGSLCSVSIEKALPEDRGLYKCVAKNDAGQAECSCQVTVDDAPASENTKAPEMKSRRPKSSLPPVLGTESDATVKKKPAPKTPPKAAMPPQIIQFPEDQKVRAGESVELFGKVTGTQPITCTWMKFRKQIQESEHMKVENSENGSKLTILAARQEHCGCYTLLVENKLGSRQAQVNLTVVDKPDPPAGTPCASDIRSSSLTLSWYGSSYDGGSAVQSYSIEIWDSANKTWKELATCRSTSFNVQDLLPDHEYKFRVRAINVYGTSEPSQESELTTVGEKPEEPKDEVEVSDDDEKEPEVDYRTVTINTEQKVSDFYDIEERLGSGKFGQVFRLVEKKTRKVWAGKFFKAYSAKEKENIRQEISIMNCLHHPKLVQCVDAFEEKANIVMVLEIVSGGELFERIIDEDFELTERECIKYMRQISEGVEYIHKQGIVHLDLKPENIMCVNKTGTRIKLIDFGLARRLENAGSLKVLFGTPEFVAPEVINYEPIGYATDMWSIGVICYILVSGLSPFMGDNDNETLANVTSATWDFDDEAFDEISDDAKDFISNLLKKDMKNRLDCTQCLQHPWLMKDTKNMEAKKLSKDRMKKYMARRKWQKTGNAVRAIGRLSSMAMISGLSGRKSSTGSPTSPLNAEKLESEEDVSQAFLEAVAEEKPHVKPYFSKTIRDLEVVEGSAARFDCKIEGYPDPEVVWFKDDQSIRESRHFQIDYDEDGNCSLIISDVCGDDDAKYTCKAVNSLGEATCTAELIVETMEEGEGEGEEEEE
The target of test [3] is Kappa-type opioid receptor (Homo sapiens, UniProt P41145). Briefly: Selectivity interaction (GPCR panel (PDSP screen)) EUB0001079a OPRK1. The conditions noted are these: at 10 µM.
Kappa-type opioid receptor, sequence (P41145 whole entry): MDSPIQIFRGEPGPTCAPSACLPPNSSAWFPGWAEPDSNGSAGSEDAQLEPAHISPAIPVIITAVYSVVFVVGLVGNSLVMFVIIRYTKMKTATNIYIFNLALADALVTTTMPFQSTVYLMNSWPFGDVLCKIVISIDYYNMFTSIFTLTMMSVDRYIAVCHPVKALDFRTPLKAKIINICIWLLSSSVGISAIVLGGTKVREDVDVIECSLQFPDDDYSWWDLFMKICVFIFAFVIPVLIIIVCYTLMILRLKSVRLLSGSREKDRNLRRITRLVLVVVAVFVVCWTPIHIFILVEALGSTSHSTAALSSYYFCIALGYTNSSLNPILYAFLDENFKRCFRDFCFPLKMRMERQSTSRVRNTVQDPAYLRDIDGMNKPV
The target of test [4] is Vascular endothelial growth factor receptor 2 (Homo sapiens, UniProt P35968). In words: Selectivity interaction (Kinase panel (literature)) EUB0001199aCl KDR. The conditions noted are these: at 1 µM.
For test [5], the target named is Serine/threonine-protein kinase 10 (Homo sapiens) (UniProt O94804). In words: Selectivity interaction (ActivX KiNativ screen (kinase selectivity in THP-1 cell lysates)) EUB0000639a STK10. It counts as subcellular. The conditions noted are these: lysate, at 0.04 µM.
Serine/threonine-protein kinase 10 (Homo sapiens), sequence (O94804 whole entry, looked up): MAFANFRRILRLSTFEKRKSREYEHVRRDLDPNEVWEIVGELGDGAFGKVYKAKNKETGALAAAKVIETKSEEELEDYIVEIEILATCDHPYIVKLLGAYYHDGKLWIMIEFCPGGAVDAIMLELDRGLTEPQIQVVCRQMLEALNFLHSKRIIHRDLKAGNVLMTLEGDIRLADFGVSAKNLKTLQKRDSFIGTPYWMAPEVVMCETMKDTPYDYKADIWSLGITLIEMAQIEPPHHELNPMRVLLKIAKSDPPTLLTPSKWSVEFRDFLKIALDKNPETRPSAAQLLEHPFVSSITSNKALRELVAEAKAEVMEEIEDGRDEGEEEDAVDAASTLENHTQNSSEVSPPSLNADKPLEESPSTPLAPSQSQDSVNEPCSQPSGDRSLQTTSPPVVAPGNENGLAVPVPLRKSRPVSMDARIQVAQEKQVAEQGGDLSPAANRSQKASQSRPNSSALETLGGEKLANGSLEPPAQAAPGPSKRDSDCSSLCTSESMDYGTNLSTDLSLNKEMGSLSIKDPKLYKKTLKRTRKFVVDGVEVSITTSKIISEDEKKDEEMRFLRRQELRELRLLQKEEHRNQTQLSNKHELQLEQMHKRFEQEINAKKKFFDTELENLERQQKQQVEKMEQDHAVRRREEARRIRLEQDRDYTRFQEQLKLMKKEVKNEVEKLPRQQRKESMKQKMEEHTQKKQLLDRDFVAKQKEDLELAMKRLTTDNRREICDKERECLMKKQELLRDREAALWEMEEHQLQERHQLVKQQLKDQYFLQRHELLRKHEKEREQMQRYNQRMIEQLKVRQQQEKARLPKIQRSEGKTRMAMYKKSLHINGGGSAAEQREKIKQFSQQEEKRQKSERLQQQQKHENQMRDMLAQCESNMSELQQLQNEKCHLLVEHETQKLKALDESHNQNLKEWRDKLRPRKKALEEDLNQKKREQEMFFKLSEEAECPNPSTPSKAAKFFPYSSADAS
The target in test [6] is Cyclin-dependent kinase 5 (Homo sapiens, UniProt Q00535). Briefly: Selectivity interaction (Kinase screening (Nanosyn)) EUB0000604a CDK5.
Cyclin-dependent kinase 5, sequence (Q00535 whole entry, looked up): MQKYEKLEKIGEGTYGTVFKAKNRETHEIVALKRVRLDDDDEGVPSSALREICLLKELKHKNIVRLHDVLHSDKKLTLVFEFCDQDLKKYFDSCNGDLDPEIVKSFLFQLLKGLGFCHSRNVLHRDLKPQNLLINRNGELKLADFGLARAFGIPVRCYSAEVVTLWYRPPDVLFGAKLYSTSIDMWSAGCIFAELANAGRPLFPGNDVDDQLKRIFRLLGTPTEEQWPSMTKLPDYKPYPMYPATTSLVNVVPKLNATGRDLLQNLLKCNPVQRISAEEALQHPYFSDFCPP
The target in test [7] is T2, MAP kinase-activated protein kinase 5 (Homo sapiens) (UniProt Q8IW41).
T2 sequence (whole entry): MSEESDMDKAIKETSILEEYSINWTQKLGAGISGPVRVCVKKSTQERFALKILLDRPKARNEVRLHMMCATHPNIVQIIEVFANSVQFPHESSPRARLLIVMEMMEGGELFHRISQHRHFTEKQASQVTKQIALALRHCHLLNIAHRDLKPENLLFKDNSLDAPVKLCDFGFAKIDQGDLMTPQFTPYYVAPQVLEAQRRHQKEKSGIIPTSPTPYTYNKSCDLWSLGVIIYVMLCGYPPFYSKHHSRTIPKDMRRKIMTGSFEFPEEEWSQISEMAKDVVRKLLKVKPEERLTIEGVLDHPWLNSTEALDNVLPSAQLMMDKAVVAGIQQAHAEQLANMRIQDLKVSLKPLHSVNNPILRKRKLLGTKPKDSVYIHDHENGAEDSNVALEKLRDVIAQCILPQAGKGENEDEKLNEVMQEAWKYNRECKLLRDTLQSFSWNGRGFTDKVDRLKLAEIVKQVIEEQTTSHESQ
The conditions noted are these: at 10 µM.

Test [8] addresses T3, Mitogen-activated protein kinase kinase kinase kinase 3 (Homo sapiens) (UniProt Q8IVH8).
T3 sequence (whole entry): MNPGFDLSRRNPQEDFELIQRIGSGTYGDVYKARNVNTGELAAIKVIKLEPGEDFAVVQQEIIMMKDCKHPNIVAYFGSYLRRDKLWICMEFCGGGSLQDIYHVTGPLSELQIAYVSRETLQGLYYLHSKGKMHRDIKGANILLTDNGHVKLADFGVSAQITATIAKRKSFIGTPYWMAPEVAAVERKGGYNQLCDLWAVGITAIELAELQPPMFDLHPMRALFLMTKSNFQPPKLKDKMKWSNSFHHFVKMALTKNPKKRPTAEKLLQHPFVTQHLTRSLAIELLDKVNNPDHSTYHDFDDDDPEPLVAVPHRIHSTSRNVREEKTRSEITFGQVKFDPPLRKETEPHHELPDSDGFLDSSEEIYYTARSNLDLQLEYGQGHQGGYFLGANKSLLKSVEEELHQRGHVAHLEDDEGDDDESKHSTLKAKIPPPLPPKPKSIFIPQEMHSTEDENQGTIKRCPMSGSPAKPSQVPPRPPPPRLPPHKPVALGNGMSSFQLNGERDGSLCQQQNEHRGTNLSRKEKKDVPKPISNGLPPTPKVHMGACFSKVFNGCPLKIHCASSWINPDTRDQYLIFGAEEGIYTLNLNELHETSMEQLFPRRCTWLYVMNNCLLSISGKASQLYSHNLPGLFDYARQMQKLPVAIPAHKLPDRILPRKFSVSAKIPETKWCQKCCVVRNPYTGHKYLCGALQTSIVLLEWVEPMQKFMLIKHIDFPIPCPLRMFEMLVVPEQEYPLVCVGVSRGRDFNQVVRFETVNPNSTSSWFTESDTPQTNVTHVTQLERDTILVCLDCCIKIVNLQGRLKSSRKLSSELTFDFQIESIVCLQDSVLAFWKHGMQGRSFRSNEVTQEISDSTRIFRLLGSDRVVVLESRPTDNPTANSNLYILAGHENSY
Briefly: Selectivity interaction (KinomeScan (DiscoverX)) EUB0001049a MAP4K3. The conditions noted are these: at 1 µM.

In test [9] the target is LIM domain kinase 1 (Homo sapiens) (UniProt P53667). Briefly: Selectivity interaction (Upstate Kinase Profiler service (Millipore)) EUB0000056c LIMK1. Conditions: at 1 µM.
LIM domain kinase 1 (Homo sapiens), sequence (P53667 whole entry, looked up, the tested form may be a part): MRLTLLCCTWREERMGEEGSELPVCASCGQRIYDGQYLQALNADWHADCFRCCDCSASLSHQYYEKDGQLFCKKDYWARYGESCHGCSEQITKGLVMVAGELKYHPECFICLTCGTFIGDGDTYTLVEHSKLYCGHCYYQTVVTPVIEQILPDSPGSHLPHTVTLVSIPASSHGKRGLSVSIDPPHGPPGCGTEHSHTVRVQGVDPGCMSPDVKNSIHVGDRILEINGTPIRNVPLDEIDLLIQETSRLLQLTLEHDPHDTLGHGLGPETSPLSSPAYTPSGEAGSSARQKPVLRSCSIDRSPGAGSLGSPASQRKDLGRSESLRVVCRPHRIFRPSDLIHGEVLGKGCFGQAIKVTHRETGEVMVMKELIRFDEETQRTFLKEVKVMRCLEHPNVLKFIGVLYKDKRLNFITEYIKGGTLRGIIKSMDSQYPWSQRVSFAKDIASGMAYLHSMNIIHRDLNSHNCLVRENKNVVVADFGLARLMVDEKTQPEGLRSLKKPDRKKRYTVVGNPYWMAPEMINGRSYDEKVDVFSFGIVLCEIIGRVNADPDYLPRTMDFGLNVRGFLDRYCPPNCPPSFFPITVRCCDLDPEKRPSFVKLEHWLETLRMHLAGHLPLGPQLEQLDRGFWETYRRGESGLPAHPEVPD

This passage reports % of activity, % of control and % of inhibition results from ChEMBL document CHEMBL5465560, “Selectivity Literature for EUbOPEN Chemogenomic Library” (2024).

Regarding `Cc1cc(C)cc([C@@H]2c3cc(C)ccc3NC(=O)CN2C(=O)c2ccc(Br)s2)c1`, the % of activity in test [1] (at 1 µM) worked out at 100%; in test [1] (at 10 µM), 101%. In turn, `O=C(NOC[C@H](O)CO)c1ccc(F)c(F)c1Nc1ccc(I)cc1F` yielded a % of control in test [2] of 100%. Turning to `Nc1cnc(N2CCc3cc(S(=O)(=O)Nc4c(F)cc(Cl)cc4F)cc(N4CCCC4=O)c32)nc1` [TP-020n], the % of inhibition in [3] turned out to be 14.9%. On to `CN1Cc2nccc(-c3cn(C)nc3-c3ccc(F)cc3)c2C1=O`, for which, in [4], the % of inhibition stood at 8%. On to `CC[C@@H]1[C@H](F)C(=O)N[C@@H]1COc1nccc2cc(C(N)=O)c(OC)cc12` [ZIMLOVISERTIB], for which, in test [5], the % of inhibition is -97%. Turning to `Cc1cnc(Nc2ccc(F)cc2Cl)nc1-c1c[nH]c(C(=O)N[C@H](CO)c2cccc(Cl)c2)c1`, the % of inhibition in [6] stood at 24%. In [7], `CCN(CC)CCCCNc1ncc2cc(-c3cc(OC)cc(OC)c3)c(NC(=O)NC(C)(C)C)nc2n1` showed a % of control of 100%. The compound `COc1cc(Nc2nc(C)cc(-c3cnn4nc(OC)ccc34)n2)cc(C(F)(F)F)c1` showed a % of control in test [8] of 100%. As for `Cc1ccc(-c2ccc3c(ccc4sc5c(c43)NC[C@@H](C)NC5=O)n2)cn1`, the % of inhibition in test [9] amounted to 4%.
